Reference: the supplement of paper PMC10307832

Columns and labels:
Assay in all cases: relative viability (nuclei count vs DMSO), 5 days (fraction); higher = more cells survive
[1] = system: A-427
Summary of the method: (§1)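 For relative viability, nuclei counts in treated wells were divided by those in vehicle wells. Lung cancer cell lines had been pin-tool dosed in 1536-well plates the day after seeding and cultured for 5 days, then fixed and stained in one step (final 0.05% Triton X-100, 1% formaldehyde, 1 ug/ml Hoechst) and imaged at 4×. Doses were one drug alone or a fixed anchor-drug dose plus five library-drug doses (not always all listed) in √10 steps, and values are duplicate-plate medians.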

[2] = system: ABC-1
Summary of the method: as §1

[3] = system: COR-L23
Summary of the method: as §1

[4] = system: EMC-BAC-2
Summary of the method: as §1

[5] = system: HARA
Summary of the method: as §1

[6] = system: HOP-62
Summary of the method: as §1

[7] = system: LK-2
Summary of the method: as §1

[8] = system: LXF-289
Summary of the method: as §1

[9] = system: NCI-H1792
Summary of the method: as §1

[10] = system: NCI-H1793
Summary of the method: as §1

[11] = system: NCI-H1944
Summary of the method: as §1

[12] = system: NCI-H1993
Summary of the method: as §1

[13] = system: NCI-H2009
Summary of the method: as §1

[14] = system: NCI-H2170
Summary of the method: as §1

[15] = system: NCI-H2228
Summary of the method: as §1

[16] = system: NCI-H3122
Summary of the method: as §1

[17] = system: NCI-H727
Summary of the method: as §1

[18] = system: PC-3 [JPC-3]
Summary of the method: as §1

[19] = system: SK-LU-1
Summary of the method: as §1

[20] = system: SK-MES-1
Summary of the method: as §1

[21] = system: SW 1573
Summary of the method: as §1

[22] = system: SW 900
Summary of the method: as §1

Question: For `NC(=O)Nc1cc(-c2cccc(F)c2)sc1C(=O)N[C@H]1CCCNC1` [AZD7762] + CC(=O)c1c(C)c2cnc(Nc3ccc(N4CCNCC4)cn3)nc2n(C2CCCC2)c1=O [Palbociclib] (partner 0.5 µM), which relative viability ([1]; first compound 0.01 µM) is on record?
Answer: 0.568

Question: What about the relative viability ([1]; first compound 0.03162 µM) of the same compound?
Answer: 0.552

Question: And the relative viability ([1]; first compound 0.1 µM)?
Answer: 0.595

Question: What about the relative viability ([1]; first compound 0.3162 µM) of the same compound?
Answer: 0.563

Question: And the relative viability ([1]; first compound 1 µM)?
Answer: 0.334

Question: And the relative viability ([2]; first compound 0.01 µM)?
Answer: 0.884

Question: And the relative viability ([2]; first compound 0.03162 µM)?
Answer: 0.968

Question: What about the relative viability ([2]; first compound 0.1 µM) of the same compound?
Answer: 0.526

Question: And the relative viability ([2]; first compound 0.3162 µM)?
Answer: 0.948

Question: What about the relative viability ([2]; first compound 1 µM) of the same compound?
Answer: 0.74

Question: And the relative viability ([3]; first compound 0.01 µM)?
Answer: 0.307

Question: What about the relative viability ([3]; first compound 0.03162 µM) of the same compound?
Answer: 0.332

Question: And the relative viability ([3]; first compound 0.1 µM)?
Answer: 0.412

Question: What about the relative viability ([3]; first compound 0.3162 µM) of the same compound?
Answer: 0.261

Question: What about the relative viability ([3]; first compound 1 µM) of the same compound?
Answer: 0.117

Question: What about the relative viability ([4]; first compound 0.01 µM) of the same compound?
Answer: 0.555

Question: What about the relative viability ([4]; first compound 0.03162 µM) of the same compound?
Answer: 0.527

Question: And the relative viability ([4]; first compound 0.1 µM)?
Answer: 0.537

Question: What about the relative viability ([4]; first compound 0.3162 µM) of the same compound?
Answer: 0.554

Question: And the relative viability ([4]; first compound 1 µM)?
Answer: 0.541

Question: And the relative viability ([5]; first compound 0.01 µM)?
Answer: 0.308

Question: What about the relative viability ([5]; first compound 0.03162 µM) of the same compound?
Answer: 0.245

Question: What about the relative viability ([5]; first compound 0.1 µM) of the same compound?
Answer: 0.254

Question: What about the relative viability ([5]; first compound 0.3162 µM) of the same compound?
Answer: 0.31

Question: What about the relative viability ([5]; first compound 1 µM) of the same compound?
Answer: 0.265

Question: What about the relative viability ([6]; first compound 0.01 µM) of the same compound?
Answer: 0.476

Question: What about the relative viability ([6]; first compound 0.03162 µM) of the same compound?
Answer: 0.394

Question: And the relative viability ([6]; first compound 0.1 µM)?
Answer: 0.545

Question: What about the relative viability ([6]; first compound 0.3162 µM) of the same compound?
Answer: 0.484

Question: And the relative viability ([6]; first compound 1 µM)?
Answer: 0.487

Question: And the relative viability ([7]; first compound 0.01 µM)?
Answer: 0.6

Question: And the relative viability ([7]; first compound 0.03162 µM)?
Answer: 0.779

Question: And the relative viability ([7]; first compound 0.1 µM)?
Answer: 0.742

Question: And the relative viability ([7]; first compound 0.3162 µM)?
Answer: 0.612

Question: What about the relative viability ([7]; first compound 1 µM) of the same compound?
Answer: 0.572

Question: What about the relative viability ([8]; first compound 0.01 µM) of the same compound?
Answer: 0.569

Question: And the relative viability ([8]; first compound 0.03162 µM)?
Answer: 0.689

Question: And the relative viability ([8]; first compound 0.1 µM)?
Answer: 0.628

Question: What about the relative viability ([8]; first compound 0.3162 µM) of the same compound?
Answer: 0.679

Question: What about the relative viability ([8]; first compound 1 µM) of the same compound?
Answer: 0.668

Question: And the relative viability ([9]; first compound 0.01 µM)?
Answer: 0.725

Question: What about the relative viability ([9]; first compound 0.03162 µM) of the same compound?
Answer: 0.705

Question: What about the relative viability ([9]; first compound 0.1 µM) of the same compound?
Answer: 0.677

Question: What about the relative viability ([9]; first compound 0.3162 µM) of the same compound?
Answer: 0.731

Question: What about the relative viability ([9]; first compound 1 µM) of the same compound?
Answer: 0.785

Question: What about the relative viability ([10]; first compound 0.01 µM) of the same compound?
Answer: 0.34

Question: And the relative viability ([10]; first compound 0.03162 µM)?
Answer: 0.343

Question: And the relative viability ([10]; first compound 0.1 µM)?
Answer: 0.373

Question: And the relative viability ([10]; first compound 0.3162 µM)?
Answer: 0.347

Question: What about the relative viability ([10]; first compound 1 µM) of the same compound?
Answer: 0.225

Question: And the relative viability ([11]; first compound 0.01 µM)?
Answer: 0.383

Question: And the relative viability ([11]; first compound 0.03162 µM)?
Answer: 0.382

Question: And the relative viability ([11]; first compound 0.1 µM)?
Answer: 0.409

Question: What about the relative viability ([11]; first compound 0.3162 µM) of the same compound?
Answer: 0.402

Question: And the relative viability ([11]; first compound 1 µM)?
Answer: 0.359

Question: What about the relative viability ([12]; first compound 0.01 µM) of the same compound?
Answer: 0.84

Question: And the relative viability ([12]; first compound 0.03162 µM)?
Answer: 0.648

Question: And the relative viability ([12]; first compound 0.1 µM)?
Answer: 0.709

Question: And the relative viability ([12]; first compound 0.3162 µM)?
Answer: 0.589

Question: What about the relative viability ([12]; first compound 1 µM) of the same compound?
Answer: 0.652

Question: And the relative viability ([13]; first compound 0.01 µM)?
Answer: 0.155

Question: What about the relative viability ([13]; first compound 0.03162 µM) of the same compound?
Answer: 0.214

Question: What about the relative viability ([13]; first compound 0.1 µM) of the same compound?
Answer: 0.221

Question: What about the relative viability ([13]; first compound 0.3162 µM) of the same compound?
Answer: 0.175

Question: And the relative viability ([13]; first compound 1 µM)?
Answer: 0.13

Question: What about the relative viability ([14]; first compound 0.01 µM) of the same compound?
Answer: 0.437

Question: And the relative viability ([14]; first compound 0.03162 µM)?
Answer: 0.397

Question: What about the relative viability ([14]; first compound 0.1 µM) of the same compound?
Answer: 0.425

Question: What about the relative viability ([14]; first compound 0.3162 µM) of the same compound?
Answer: 0.424

Question: What about the relative viability ([14]; first compound 1 µM) of the same compound?
Answer: 0.415

Question: And the relative viability ([15]; first compound 0.01 µM)?
Answer: 0.787

Question: And the relative viability ([15]; first compound 0.03162 µM)?
Answer: 0.937

Question: What about the relative viability ([15]; first compound 0.1 µM) of the same compound?
Answer: 0.896

Question: And the relative viability ([15]; first compound 0.3162 µM)?
Answer: 0.283

Question: What about the relative viability ([15]; first compound 1 µM) of the same compound?
Answer: 0.156

Question: And the relative viability ([16]; first compound 0.01 µM)?
Answer: 0.167

Question: What about the relative viability ([16]; first compound 0.03162 µM) of the same compound?
Answer: 0.206

Question: What about the relative viability ([16]; first compound 0.1 µM) of the same compound?
Answer: 0.191

Question: What about the relative viability ([16]; first compound 0.3162 µM) of the same compound?
Answer: 0.199

Question: And the relative viability ([16]; first compound 1 µM)?
Answer: 0.191

Question: What about the relative viability ([17]; first compound 0.01 µM) of the same compound?
Answer: 0.693

Question: And the relative viability ([17]; first compound 0.03162 µM)?
Answer: 0.669

Question: And the relative viability ([17]; first compound 0.1 µM)?
Answer: 0.669

Question: And the relative viability ([17]; first compound 0.3162 µM)?
Answer: 0.642

Question: And the relative viability ([17]; first compound 1 µM)?
Answer: 0.559

Question: And the relative viability ([18]; first compound 0.01 µM)?
Answer: 0.558

Question: And the relative viability ([18]; first compound 0.03162 µM)?
Answer: 0.541

Question: And the relative viability ([18]; first compound 0.1 µM)?
Answer: 0.537

Question: And the relative viability ([18]; first compound 0.3162 µM)?
Answer: 0.538

Question: What about the relative viability ([18]; first compound 1 µM) of the same compound?
Answer: 0.504

Question: What about the relative viability ([19]; first compound 0.01 µM) of the same compound?
Answer: 0.364

Question: And the relative viability ([19]; first compound 0.03162 µM)?
Answer: 0.418

Question: And the relative viability ([19]; first compound 0.1 µM)?
Answer: 0.365

Question: What about the relative viability ([19]; first compound 0.3162 µM) of the same compound?
Answer: 0.232

Question: What about the relative viability ([19]; first compound 1 µM) of the same compound?
Answer: 0.232

Question: What about the relative viability ([20]; first compound 0.01 µM) of the same compound?
Answer: 0.339

Question: What about the relative viability ([20]; first compound 0.03162 µM) of the same compound?
Answer: 0.337

Question: And the relative viability ([20]; first compound 0.1 µM)?
Answer: 0.328

Question: And the relative viability ([20]; first compound 0.3162 µM)?
Answer: 0.279

Question: And the relative viability ([20]; first compound 1 µM)?
Answer: 0.2

Question: And the relative viability ([21]; first compound 0.01 µM)?
Answer: 0.424

Question: And the relative viability ([21]; first compound 0.03162 µM)?
Answer: 0.453

Question: What about the relative viability ([21]; first compound 0.1 µM) of the same compound?
Answer: 0.466

Question: What about the relative viability ([21]; first compound 0.3162 µM) of the same compound?
Answer: 0.377

Question: What about the relative viability ([21]; first compound 1 µM) of the same compound?
Answer: 0.314

Question: And the relative viability ([22]; first compound 0.01 µM)?
Answer: 0.597

Question: What about the relative viability ([22]; first compound 0.03162 µM) of the same compound?
Answer: 0.688

Question: And the relative viability ([22]; first compound 0.1 µM)?
Answer: 0.583

Question: What about the relative viability ([22]; first compound 0.3162 µM) of the same compound?
Answer: 0.444

Question: What about the relative viability ([22]; first compound 1 µM) of the same compound?
Answer: 0.504
